Measurements reported in patent US20260234139A1, “PGDH INHIBITORS AND METHODS OF MAKING AND USING” (Epirium Bio Inc., priority 2023, published 2026).
pEC50, pIC50: −log10 of the molar value.

Assays:
[1] = tested on: A549; experiment: A549 EC50 (cell assay, method not described); assay type: cell-based
[2] = biological target: T1, 15-PGDH/HPGD (Homo sapiens, UniProt P15428); experiment: hPGDH inhibitor screening biochemical assay; conditions: 10 nM enzyme, 15 μM Prostaglandin E2, 0.25 mM NAD, fluorescence ex/em 340/485 nm
T1 construct: purchased R&D System 5660-DH
T1 sequence (P15428 1-266): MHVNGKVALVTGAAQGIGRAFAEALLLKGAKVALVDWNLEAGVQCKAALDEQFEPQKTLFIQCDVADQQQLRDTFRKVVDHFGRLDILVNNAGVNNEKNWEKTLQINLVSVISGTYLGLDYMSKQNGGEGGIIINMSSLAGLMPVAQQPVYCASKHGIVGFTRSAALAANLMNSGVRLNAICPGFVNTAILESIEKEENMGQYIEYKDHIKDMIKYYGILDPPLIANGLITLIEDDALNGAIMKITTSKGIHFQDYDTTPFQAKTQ
Summary of the method: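 Recombinant 15-PGDH (10 nM) preincubated with compound 10 min at 37° C, then 15 μM PGE2 and 0.25 mM NAD⁺ added for 10 min at room temperature in 50 mM Tris-HCl pH 7.5, 0.01% Tween 20. NADH fluorescence at ex/em 340/485 nm; 10-point dose response.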

Row | Structure (SMILES) | pEC50 ([1]; Homo sapiens, A549, A549) | pIC50 [2] | pEC50 ([1]; A549)
1 | CC(C)NC[C@H](O)c1cnc2c(cnn2-c2cccc(-c3nnc[nH]3)c2)c1 [Compound 27A, (R)-1-(1-(3-(4H-1,2,4-triazol-3-yl)phenyl)-1H-pyrazolo[3,4-b]pyridin-5-yl)-2-(isopropylamino) ethan-1-ol] | ≤ 6.00 | ≤ 6.00 | –
2 | O[C@@H](COC1CCC1)c1cnc2c(cnn2-c2ccc(N3CCCC3)cc2)c1 [Compound 75B] | ≤ 6.00 | ≤ 6.00 | –
3 | CNC(=O)c1ccc(-n2ncc3cc([C@H](O)COC4CCC4)cnc32)cc1 [Compound 84A] | > 7.00 | > 7.00 | –
4 | CC(C)OC[C@H](O)c1cnc2c(ccn2-c2cccc(-c3nnc[nH]3)c2)c1 [Compound 29A] | > 7.00 | > 7.00 | –
5 | O[C@@H](c1cnc2c(cnn2-c2cccc(-c3nnc[nH]3)c2)c1)C1(OCC(F)F)CC1 [Compound 73B] | ≤ 6.00 | ≤ 6.00 | –
6 | O=C(O)CCc1ccc(-n2ncc3cc([C@@H](O)COC4CC4)cnc32)cc1F [Compound 86A] | > 7.00 | > 7.00 | –
7 | CCOC1([C@H](O)c2cnc3c(cnn3-c3ccc(C(=O)O)cc3)c2)CCC1 [Compound 85A] | ≤ 6.00 | 6.00 to 7.00 | –
8 | C[C@H](OC1CCC1)[C@H](O)c1cnc2c(cnn2-c2ccc(C(=O)O)cc2)c1 [Compound 108C] | 6.00 to 7.00 | 6.00 to 7.00 | –
9 | CSc1cccc(-n2ncc3cc([C@H](O)COC4CCC4)cnc32)c1 [Compound 122B] | ≤ 6.00 | ≤ 6.00 | –
10 | O[C@@H](c1cnc2c(cnn2-c2cccc(-c3nnc[nH]3)c2)c1)[C@@H]1CCOC1 [Compound 68A] | > 7.00 | > 7.00 | –
11 | CC(C)(C)OC[C@@H](O)c1cnc2c(cnn2-c2cccc(-c3nnc[nH]3)c2)c1 [Compound 32B] | > 7.00 | > 7.00 | –
12 | C[S+]([O-])c1ccc(-n2ncc3cc([C@H](O)COC4CCC4)cnc32)cc1 (stereo partly shown) [Compound 124B] | ≤ 6.00 | ≤ 6.00 | –
13 | CC(C)OC[C@H](O)c1cnc2c(ccn2-c2cccc(-c3nnc[nH]3)c2)n1 [Compound 20B] | 6.00 to 7.00 | > 7.00 | –
14 | C[S+]([O-])c1ccc(-n2ncc3cc([C@@H](O)COC4CCC4)cnc32)cc1 (stereo partly shown) [Compound 124A] | > 7.00 | > 7.00 | –
15 | CC(C)OC[C@H](O)c1cnc2c(cnn2-c2ccc(CCC(=O)O)cc2)c1 [Compound 69B] | 6.00 to 7.00 | 6.00 to 7.00 | –
16 | C[C@@H](OC1CCC1)[C@@H](O)c1cnc2c(cnn2-c2ccc(C(=O)O)cc2)c1 [Compound 108B] | 6.00 to 7.00 | 6.00 to 7.00 | –
17 | CSc1ccc(-n2ncc3cc([C@@H](O)COC4CCC4)cnc32)cc1 [Compound 119A] | 6.00 to 7.00 | > 7.00 | –
18 | O=C(O)c1ccc(-n2ccc3nc([C@H](O)COCC4CC4)cnc32)cc1 [Compound 112B] | 6.00 to 7.00 | > 7.00 | –
19 | O=C(O)[C@H]1CCN(c2ccc(-n3ncc4cc([C@@H](O)COC5CCC5)cnc43)cc2)C1 [Compound 87A] | ≤ 6.00 | > 7.00 | –
20 | CC(C)OCC(O)c1cnc2c(cnn2-c2cccc(-c3nnc[nH]3)c2)c1 (single isomer, unassigned) [Compound 18A] | – | > 7.00 | > 7.00
21 | O[C@H](c1cnc2c(cnn2-c2cccc(-c3nnc[nH]3)c2)c1)[C@H]1CCOC1 [Compound 68B] | > 7.00 | > 7.00 | –
22 | O=C(O)c1ccc(-n2ncc3cc([C@@H](O)C4(OCC(F)F)CC4)cnc32)cc1 [Compound 72B] | ≤ 6.00 | ≤ 6.00 | –
23 | CCOC1([C@H](O)c2cnc3c(cnn3-c3cccc(-c4nnc[nH]4)c3)c2)CC1 [Compound 63A] | ≤ 6.00 | ≤ 6.00 | –
24 | O[C@H](COC1CCC1)c1cnc2c(cnn2-c2ccc(-c3nnn[nH]3)cc2)c1 [Compound 79A] | 6.00 to 7.00 | > 7.00 | –
25 | CN(C)C[C@@H](O)c1cnc2c(cnn2-c2cccc(-c3nnc[nH]3)c2)c1 [Compound 25B] | ≤ 6.00 | 6.00 to 7.00 | –
26 | COCC[C@H](O)c1cnc2c(cnn2-c2cccc(-c3nnc[nH]3)c2)c1 [Compound 36B] | 6.00 to 7.00 | > 7.00 | –
27 | CC(C)OCC[C@H](O)c1cnc2c(cnn2-c2cccc(-c3nnc[nH]3)c2)c1 [Compound 44B] | 6.00 to 7.00 | > 7.00 | –
28 | CC(C)OC[C@@H](O)c1cnc2c(cnn2-c2ccc(OCC(=O)O)c(F)c2)c1 [Compound 74A] | 6.00 to 7.00 | > 7.00 | –
29 | Cc1cc(-n2ncc3cc([C@@H](O)COC4CCC4)cnc32)ccc1C(=O)O [Compound 95A] | > 7.00 | > 7.00 | –
